The values below come from patent publication US7888385B2, “Airway alkalinization as therapy for airway diseases” (priority 2002, dated 2011).

Structures can show the parent of a compound that is named as a salt.

Data set [1] in a line: Practical applications: asthma patient cases. It counts as in vivo, human. From the text: (§1) Practical Applications of the Present Invention
The conditions of data set [2]: existing formulations; cited from earlier work.
Data set [3] relates to airway epithelial glutaminase. Description: Ammonium accumulation by small airway epithelial cells (SAEC) in 3 mM glutamine. It counts as cell-based, human. As for the experimental part: (SAEC: Clonetics) grown to confluence in six well plates with 3 mM glutamine were incubated with S-Nitrosoglutathione (GSNO; 200 μm) in the presence or absence of cysteinyl glycine (CG; 100 μM). Ammonium accumulation over time was compared with control cells. S-Nitrosoglutathione require conversion to S-Nitrosocysteinyl glycine (CGSNO) (whether through simple transnitrosation reactions in the presence of CG or through cleavage by γ glutamyl transpeptidase) to be fully active at intracellular sites, such as mitochondrial glutaminase, in some system. However, conversion of GSNO to CGSNO dramatically shortens the chemical and biological half-life of the SNO moiety. […] Accumulation of NH4^+ in medium alone was at the threshold of detection.

The test system of another data set is mycobacteria. The note with it: human, in vivo, pH 3.
Description: as §1

A further data set concerns glutaminase. The data set is described as follows: Glutaminase activity in cultured lung epithelial cells. The format is cell-based. Conditions: 100 u/ml, at 24 and 48 hours, p<0.01, n=3 each. An excerpt: An indirect effect of HRV infection involving inflammatory and/or neuronal mediators is also possible. In particular, IFN γ is a likely candidate to mediate glutaminase inhibition because 1) Th1 cytokines inhibit glutaminase activity in lower airway epithelial cells 2) IFN γ inhibits glutaminase in other cell systems; and 3) IFN γ production following HRV infection in the setting of Th2-lymphocyte associated chronic inflammation may contribute to asthmatic airway narrowing. Applicants have shown that 100 u/ml interferon gamma inhibits glutaminase activity in cultured lung epithelial cells in excess of 65% at 24 and 48 hours (p<0.01, n=3 each). Though circulating T cells could produce IFN γ during rhinovirus infections, it seems more likely that it would be secreted in the airway itself as a result of local recruitment and activation of Th1 and/or CD8 cells.
In accordance with one embodiment, a method of treating asthma comprises nebulizing or treating systemically with a compound that facilitates breakdown of S-Nitrosothiols, such as CuCl, Cu/Zn SOD, glutathione peroxidase, glutathione-dependent formaldehyde dehydrogenase or gamma glutamyl transpeptidase. […]

The conditions of data set [4]: cited from earlier work.

Take `CC(C)(C)NC[C@H](O)c1ccc(O)c(CO)c1` [Levalbuterol HCl]: in data set [1] (levalbuterol and budesonide together, 0.5 mg by nebulizer four times/day), the asthma symptoms result was “without relief of their symptoms”. In addition, the “pH of existing formulation” value in data set [2] was 3.3-4.5.

For `N[C@@H](CS)C(=O)NCC(=O)O` [CG, cysteinyl glycine], in data set [3] (cysteinyl glycine 100 μM added to GSNO 200 μm, after 48 hours), the “effect on GSNO inhibition of NH4+ accumulation after 48 hours” value is “eliminated the GSNO effect”.

Take `[Cl][Cu]` [CuCl]: the asthma symptoms entry in data set [1] (10 μM in 10 mM phosphate buffered saline, pH 8, three times/day) is “asthma symptoms resolve”.

With `CC(=O)O` [acetic acid], in the data set with mycobacteria, the tuberculosis symptoms result is “symptoms resolve”.

`CC(C)(C)NCC(O)c1ccc(O)c(CO)c1` (centres unmarked) [Albuterol]: the asthma symptoms entry in data set [1] (0.083 mg diluted in normal saline (pH 3.5), child) was “symptoms do not improve”; in data set [1] (same dose diluted in 10 mM phosphate buffered saline, pH 8) it was “symptoms resolve”. Further, the “pH of existing formulation” value in data set [2] is 3 to 5.

On to “interferon gamma: Th1-derived cytokine that inhibits glutaminase”, for which, in the data set with glutaminase, the “inhibition of glutaminase activity” value is greater than 65%.

For `NC(=O)CC[C@H](N)C(=O)O` [glutamine], in data set [1] (1 gm by mouth three times a day), the asthma symptoms entry is “does not develop any asthma symptoms”. Besides, the asthma exacerbation result in data set [1] (1 gm by nebulizer (pH 8) twice a day at onset of upper respiratory symptoms) is reported as “does not develop an asthma exacerbation”.

For `OC(Cn1cncn1)(Cn1cncn1)c1ccc(F)cc1F` [fluconazole], the asthma symptoms result in data set [1] (7 day course, 200 mg/day, chronic yeast infection in mouth) is reported as “asthma symptoms improve”.

As to `N[C@@H](CCC(=O)N[C@@H](CSN=O)C(=O)NCC(=O)O)C(=O)O` [GSNO, S-Nitrosoglutathione], the “NH4+ accumulation at 24 hours” value in data set [3] (GSNO 200 μm in the presence of cysteinyl glycine 100 μM, 24 hours) is reported as “no NH4^+ at all accumulated”. Moreover, the “NH4+ accumulation over time vs control cells” value in data set [3] (GSNO 200 μm, SAEC, p<0.01 by ANOVA) is on record as “inhibited NH4^+ accumulation at each time point”.

Usually pKa stands for the negative logarithm of the acid dissociation constant. Regarding `O=C(O)CN(CCO)CCO` [bicine, N,N-Bis(2-hydroxyethyl)glycine], the pKa in data set [4] was 8.46.

Consider `O=C(O)CNC(CO)(CO)CO` [tricene, N-[tris(hydroxymethyl)methyl] glycine], for which the pKa in data set [4] is on record as 8.26.

Take `NCC(=O)O` [glycine, aminoacetic acid]: in data set [1] (1 mM glycine in 10 mM CAPS (pH 7.6) by nebulizer immediately before levalbuterol and budesonide), the asthma symptoms entry is reported as “becomes asymptomatic”.
